Results: patent US20230085307A1, “PYRIDAZINONE COMPOUND AND HERBICIDE” (NISSAN CHEMICAL CORPORATION, priority 2019, published 2023)

System: redroot pigweed
Test: Test Example 4: herbicidal effect by soil treatment (Table 19, symbol N)
Assay type: in vivo, redroot pigweed (Amaranthus retroflexus)
Settings: amount of applied herbicide 320 g/ha
Procedure, shortened: (§1)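 Scoring uses the grading scale of an earlier test, three weeks post-application. Treatment consists of spraying a diluted emulsion formulation across the surface of sterilized diluvial soil in which seeds are buried near 1.5 cm deep; boxes are kept in a greenhouse between 25° C. and 30° C.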

SMILES	herbicidal effect on N: redroot pigweed
COCC(=O)Oc1c(C)nn(C)c(=O)c1-c1c(-c2ccc(OC(F)F)cc2)sc2ccc(F)cc12 [2-283]	5 (Herbicidal rate of 90% or more (almost completely withered))
Cc1nn(C)c(=O)c(-c2c(-c3ccc(OC(F)F)cc3)sc3ccc(F)cc23)c1OC(=O)c1ccc(Cl)cc1 [2-286]	4 (Herbicidal rate of 70% or more and less than 90%)
Cc1nn(C)c(=O)c(-c2c(-c3ccc(OC(F)F)cc3)sc3ccc(F)cc23)c1OC(=O)c1ccco1 [2-287]	5 (Herbicidal rate of 90% or more (almost completely withered))

System: oval-leafed pondweed
Test: Test Example 1: herbicidal activity, application before weed generation under submerged conditions (Table 16, symbol C)
Assay type: in vivo, oval-leafed pondweed (Monochoria vaginalis)
Settings: 320 g/ha applied herbicide
Procedure, shortened: (§2)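 Alluvial soil was flooded to 4 cm depth, weed seeds were sown mixed and 2.5-leaf rice seedlings were transplanted. On sowing day, the compound's emulsion, diluted in water to a set dose, was applied to the water surface. Plants grew at 25–30 °C and were scored 0–5 after three weeks.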

SMILES	Herbicidal effect on C: oval-leafed pondweed (grade 0-5)
COCC(=O)Oc1c(C)nn(C)c(=O)c1-c1c(-c2ccc(OC(F)F)cc2)sc2ccc(F)cc12 [2-283]	3 (Herbicidal rate of 40% or more and less than 70%)
Cc1nn(C)c(=O)c(-c2c(-c3ccc(OC(F)F)cc3)sc3ccc(F)cc23)c1OC(=O)c1ccc(Cl)cc1 [2-286]	1 (Herbicidal rate of 5% or more and less than 20%)
Cc1nn(C)c(=O)c(-c2c(-c3ccc(OC(F)F)cc3)sc3ccc(F)cc23)c1OC(=O)c1ccco1 [2-287]	4 (Herbicidal rate of 70% or more and less than 90%)

System: Japanese bulrush
Test: Test Example 2: herbicidal activity, application during weed generation under submerged conditions (Table 17, symbol B)
Assay type: in vivo, Japanese bulrush (Schoenoplectus juncoides)
Settings: AAH 320 g/ha; application during weed generation, submerged conditions
Procedure, shortened: (§3)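 Alluvial soil in Wagner pots was flooded to 4 cm depth and sown with the three weeds together; pots were kept in a greenhouse at 25° C. to 30° C. At the one to two leaf stage, an emulsion formulation diluted in water to a set rate went onto the water surface; scored three weeks later.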

SMILES	herbicidal effect rating, B: Japanese bulrush
COCC(=O)Oc1c(C)nn(C)c(=O)c1-c1c(-c2ccc(OC(F)F)cc2)sc2ccc(F)cc12 [2-283]	3 (Herbicidal rate of 40% or more and less than 70%)
Cc1nn(C)c(=O)c(-c2c(-c3ccc(OC(F)F)cc3)sc3ccc(F)cc23)c1OC(=O)c1ccc(Cl)cc1 [2-286]	3 (Herbicidal rate of 40% or more and less than 70%)
Cc1nn(C)c(=O)c(-c2c(-c3ccc(OC(F)F)cc3)sc3ccc(F)cc23)c1OC(=O)c1ccco1 [2-287]	3 (Herbicidal rate of 40% or more and less than 70%)

System: oval-leafed pondweed
Test: Test Example 2: herbicidal activity, application during weed generation under submerged conditions (Table 17, symbol C)
Assay type: in vivo, oval-leafed pondweed (Monochoria vaginalis)
Settings: AAH 320 g/ha; application during weed generation, submerged conditions
Procedure, shortened: as §3

SMILES	herbicidal effect rating, C: oval-leafed pondweed
COCC(=O)Oc1c(C)nn(C)c(=O)c1-c1c(-c2ccc(OC(F)F)cc2)sc2ccc(F)cc12 [2-283]	4 (Herbicidal rate of 70% or more and less than 90%)
Cc1nn(C)c(=O)c(-c2c(-c3ccc(OC(F)F)cc3)sc3ccc(F)cc23)c1OC(=O)c1ccc(Cl)cc1 [2-286]	3 (Herbicidal rate of 40% or more and less than 70%)
Cc1nn(C)c(=O)c(-c2c(-c3ccc(OC(F)F)cc3)sc3ccc(F)cc23)c1OC(=O)c1ccco1 [2-287]	4 (Herbicidal rate of 70% or more and less than 90%)

System: chickweed
Test: Test Example 5: herbicidal effect by foliage application, plastic box (Table 20, symbol P)
Assay type: in vivo, common chickweed (Stellaria media)
Settings: foliage application, AAH 320 g/ha, evaluated three weeks after application
Procedure, shortened: (§4)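 Post-emergence foliar test in sterilized diluvial soil. Compound applied as water-diluted emulsion at a predetermined rate to 14-day-old plants; evaluation at three weeks.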

SMILES	P: chickweed, herbicidal effect (criteria 0-5)
COCC(=O)Oc1c(C)nn(C)c(=O)c1-c1c(-c2ccc(OC(F)F)cc2)sc2ccc(F)cc12 [2-283]	5 (Herbicidal rate of 90% or more (almost completely withered))
Cc1nn(C)c(=O)c(-c2c(-c3ccc(OC(F)F)cc3)sc3ccc(F)cc23)c1OC(=O)c1ccc(Cl)cc1 [2-286]	5 (Herbicidal rate of 90% or more (almost completely withered))
Cc1nn(C)c(=O)c(-c2c(-c3ccc(OC(F)F)cc3)sc3ccc(F)cc23)c1OC(=O)c1ccco1 [2-287]	5 (Herbicidal rate of 90% or more (almost completely withered))

System: persian speedwell
Test: Test Example 5: herbicidal effect by foliage application, plastic box (Table 20, symbol R)
Assay type: in vivo, Persian speedwell (Veronica persica)
Settings: foliage application, AAH 320 g/ha, evaluated three weeks after application
Procedure, shortened: as §4

SMILES	R: persian speedwell, herbicidal effect (criteria 0-5)
COCC(=O)Oc1c(C)nn(C)c(=O)c1-c1c(-c2ccc(OC(F)F)cc2)sc2ccc(F)cc12 [2-283]	5 (Herbicidal rate of 90% or more (almost completely withered))
Cc1nn(C)c(=O)c(-c2c(-c3ccc(OC(F)F)cc3)sc3ccc(F)cc23)c1OC(=O)c1ccc(Cl)cc1 [2-286]	5 (Herbicidal rate of 90% or more (almost completely withered))
Cc1nn(C)c(=O)c(-c2c(-c3ccc(OC(F)F)cc3)sc3ccc(F)cc23)c1OC(=O)c1ccco1 [2-287]	5 (Herbicidal rate of 90% or more (almost completely withered))

System: barnyard grass
Test: Test Example 4: herbicidal effect by soil treatment (Table 19, symbol H)
Assay type: in vivo, barnyard grass (Echinochloa crus-galli)
Settings: amount of applied herbicide 320 g/ha
Procedure, shortened: as §1

SMILES	herbicidal effect on H: barnyard grass
COCC(=O)Oc1c(C)nn(C)c(=O)c1-c1c(-c2ccc(OC(F)F)cc2)sc2ccc(F)cc12 [2-283]	5 (Herbicidal rate of 90% or more (almost completely withered))
Cc1nn(C)c(=O)c(-c2c(-c3ccc(OC(F)F)cc3)sc3ccc(F)cc23)c1OC(=O)c1ccc(Cl)cc1 [2-286]	1 (Herbicidal rate of 5% or more and less than 20%)
Cc1nn(C)c(=O)c(-c2c(-c3ccc(OC(F)F)cc3)sc3ccc(F)cc23)c1OC(=O)c1ccco1 [2-287]	5 (Herbicidal rate of 90% or more (almost completely withered))

System: Japanese bulrush
Test: Test Example 1: herbicidal activity, application before weed generation under submerged conditions (Table 16, symbol B)
Assay type: in vivo, Japanese bulrush (Schoenoplectus juncoides)
Settings: 320 g/ha applied herbicide
Procedure, shortened: as §2

SMILES	Herbicidal effect on B: Japanese bulrush (grade 0-5)
COCC(=O)Oc1c(C)nn(C)c(=O)c1-c1c(-c2ccc(OC(F)F)cc2)sc2ccc(F)cc12 [2-283]	5 (Herbicidal rate of 90% or more (almost completely withered))
Cc1nn(C)c(=O)c(-c2c(-c3ccc(OC(F)F)cc3)sc3ccc(F)cc23)c1OC(=O)c1ccc(Cl)cc1 [2-286]	3 (Herbicidal rate of 40% or more and less than 70%)
Cc1nn(C)c(=O)c(-c2c(-c3ccc(OC(F)F)cc3)sc3ccc(F)cc23)c1OC(=O)c1ccco1 [2-287]	4 (Herbicidal rate of 70% or more and less than 90%)

System: green foxtail
Test: Test Example 4: herbicidal effect by soil treatment (Table 19, symbol G)
Assay type: in vivo, green foxtail (Setaria viridis)
Settings: amount of applied herbicide 320 g/ha
Procedure, shortened: as §1

SMILES	herbicidal effect on G: green foxtail
COCC(=O)Oc1c(C)nn(C)c(=O)c1-c1c(-c2ccc(OC(F)F)cc2)sc2ccc(F)cc12 [2-283]	5 (Herbicidal rate of 90% or more (almost completely withered))
Cc1nn(C)c(=O)c(-c2c(-c3ccc(OC(F)F)cc3)sc3ccc(F)cc23)c1OC(=O)c1ccc(Cl)cc1 [2-286]	3 (Herbicidal rate of 40% or more and less than 70%)
Cc1nn(C)c(=O)c(-c2c(-c3ccc(OC(F)F)cc3)sc3ccc(F)cc23)c1OC(=O)c1ccco1 [2-287]	5 (Herbicidal rate of 90% or more (almost completely withered))

System: wild oat
Test: Test Example 5: herbicidal effect by foliage application, plastic box (Table 20, symbol I)
Assay type: in vivo, wild oat (Avena fatua)
Settings: foliage application, AAH 320 g/ha, evaluated three weeks after application
Procedure, shortened: as §4

SMILES	I: wild oat, herbicidal effect (criteria 0-5)
COCC(=O)Oc1c(C)nn(C)c(=O)c1-c1c(-c2ccc(OC(F)F)cc2)sc2ccc(F)cc12 [2-283]	3 (Herbicidal rate of 40% or more and less than 70%)
Cc1nn(C)c(=O)c(-c2c(-c3ccc(OC(F)F)cc3)sc3ccc(F)cc23)c1OC(=O)c1ccc(Cl)cc1 [2-286]	1 (Herbicidal rate of 5% or more and less than 20%)
Cc1nn(C)c(=O)c(-c2c(-c3ccc(OC(F)F)cc3)sc3ccc(F)cc23)c1OC(=O)c1ccco1 [2-287]	3 (Herbicidal rate of 40% or more and less than 70%)

System: green foxtail
Test: Test Example 5: herbicidal effect by foliage application, plastic box (Table 20, symbol G)
Assay type: in vivo, green foxtail (Setaria viridis)
Settings: foliage application, AAH 320 g/ha, evaluated three weeks after application
Procedure, shortened: as §4

SMILES	G: green foxtail, herbicidal effect (criteria 0-5)
COCC(=O)Oc1c(C)nn(C)c(=O)c1-c1c(-c2ccc(OC(F)F)cc2)sc2ccc(F)cc12 [2-283]	5 (Herbicidal rate of 90% or more (almost completely withered))
Cc1nn(C)c(=O)c(-c2c(-c3ccc(OC(F)F)cc3)sc3ccc(F)cc23)c1OC(=O)c1ccc(Cl)cc1 [2-286]	5 (Herbicidal rate of 90% or more (almost completely withered))
Cc1nn(C)c(=O)c(-c2c(-c3ccc(OC(F)F)cc3)sc3ccc(F)cc23)c1OC(=O)c1ccco1 [2-287]	5 (Herbicidal rate of 90% or more (almost completely withered))

System: southern crabgrass
Test: Test Example 5: herbicidal effect by foliage application, plastic box (Table 20, symbol F)
Assay type: in vivo, southern crabgrass (Digitaria ciliaris)
Settings: foliage application, AAH 320 g/ha, evaluated three weeks after application
Procedure, shortened: as §4

SMILES	F: southern crabgrass, herbicidal effect (criteria 0-5)
COCC(=O)Oc1c(C)nn(C)c(=O)c1-c1c(-c2ccc(OC(F)F)cc2)sc2ccc(F)cc12 [2-283]	5 (Herbicidal rate of 90% or more (almost completely withered))
Cc1nn(C)c(=O)c(-c2c(-c3ccc(OC(F)F)cc3)sc3ccc(F)cc23)c1OC(=O)c1ccc(Cl)cc1 [2-286]	2 (Herbicidal rate of 20% or more and less than 40%)
Cc1nn(C)c(=O)c(-c2c(-c3ccc(OC(F)F)cc3)sc3ccc(F)cc23)c1OC(=O)c1ccco1 [2-287]	5 (Herbicidal rate of 90% or more (almost completely withered))

System: chickweed
Test: Test Example 4: herbicidal effect by soil treatment (Table 19, symbol P)
Assay type: in vivo, common chickweed (Stellaria media)
Settings: amount of applied herbicide 320 g/ha
Procedure, shortened: as §1

SMILES	herbicidal effect on P: chickweed
COCC(=O)Oc1c(C)nn(C)c(=O)c1-c1c(-c2ccc(OC(F)F)cc2)sc2ccc(F)cc12 [2-283]	4 (Herbicidal rate of 70% or more and less than 90%)
Cc1nn(C)c(=O)c(-c2c(-c3ccc(OC(F)F)cc3)sc3ccc(F)cc23)c1OC(=O)c1ccc(Cl)cc1 [2-286]	0 (Herbicidal rate of 5% or less (almost no effect))
Cc1nn(C)c(=O)c(-c2c(-c3ccc(OC(F)F)cc3)sc3ccc(F)cc23)c1OC(=O)c1ccco1 [2-287]	4 (Herbicidal rate of 70% or more and less than 90%)

System: barnyard grass
Test: Test Example 5: herbicidal effect by foliage application, plastic box (Table 20, symbol H)
Assay type: in vivo, barnyard grass (Echinochloa crus-galli)
Settings: foliage application, AAH 320 g/ha, evaluated three weeks after application
Procedure, shortened: as §4

SMILES	H: barnyard grass, herbicidal effect (criteria 0-5)
COCC(=O)Oc1c(C)nn(C)c(=O)c1-c1c(-c2ccc(OC(F)F)cc2)sc2ccc(F)cc12 [2-283]	5 (Herbicidal rate of 90% or more (almost completely withered))
Cc1nn(C)c(=O)c(-c2c(-c3ccc(OC(F)F)cc3)sc3ccc(F)cc23)c1OC(=O)c1ccc(Cl)cc1 [2-286]	5 (Herbicidal rate of 90% or more (almost completely withered))
Cc1nn(C)c(=O)c(-c2c(-c3ccc(OC(F)F)cc3)sc3ccc(F)cc23)c1OC(=O)c1ccco1 [2-287]	5 (Herbicidal rate of 90% or more (almost completely withered))

System: wild oat
Test: Test Example 4: herbicidal effect by soil treatment (Table 19, symbol I)
Assay type: in vivo, wild oat (Avena fatua)
Settings: amount of applied herbicide 320 g/ha
Procedure, shortened: as §1

SMILES	herbicidal effect on I: wild oat
COCC(=O)Oc1c(C)nn(C)c(=O)c1-c1c(-c2ccc(OC(F)F)cc2)sc2ccc(F)cc12 [2-283]	0 (Herbicidal rate of 5% or less (almost no effect))
Cc1nn(C)c(=O)c(-c2c(-c3ccc(OC(F)F)cc3)sc3ccc(F)cc23)c1OC(=O)c1ccc(Cl)cc1 [2-286]	0 (Herbicidal rate of 5% or less (almost no effect))
Cc1nn(C)c(=O)c(-c2c(-c3ccc(OC(F)F)cc3)sc3ccc(F)cc23)c1OC(=O)c1ccco1 [2-287]	0 (Herbicidal rate of 5% or less (almost no effect))

System: windgrass
Test: Test Example 5: herbicidal effect by foliage application, plastic box (Table 20, symbol L)
Assay type: in vivo, windgrass (Apera spica-venti)
Settings: foliage application, AAH 320 g/ha, evaluated three weeks after application
Procedure, shortened: as §4

SMILES	L: windgrass, herbicidal effect (criteria 0-5)
COCC(=O)Oc1c(C)nn(C)c(=O)c1-c1c(-c2ccc(OC(F)F)cc2)sc2ccc(F)cc12 [2-283]	5 (Herbicidal rate of 90% or more (almost completely withered))
Cc1nn(C)c(=O)c(-c2c(-c3ccc(OC(F)F)cc3)sc3ccc(F)cc23)c1OC(=O)c1ccc(Cl)cc1 [2-286]	0 (Herbicidal rate of 5% or less (almost no effect))
Cc1nn(C)c(=O)c(-c2c(-c3ccc(OC(F)F)cc3)sc3ccc(F)cc23)c1OC(=O)c1ccco1 [2-287]	4 (Herbicidal rate of 70% or more and less than 90%)
